This note sets out measurements from ChEMBL document CHEMBL1201862, “PubChem BioAssay data set” (2004).

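Grown in 96-well plates, cells were treated for 48 hours with each compound at five concentrations. Insufficient inhibition: endpoint recorded as highest concentration tested. GI50: concentration for 50% inhibition of growth.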 Calls of active or inactive are those of the source. Cut-off read from the data, not from the text of the source: active = GI50 up to about 1.1 µM and inactive = higher.

Common to all, as to experiment: NCI tumour cell line growth inhibition, 48 h
For experiment [1], the system named is OVCAR-4.
The test system of experiment [2] is CAKI-1.
For experiment [3], the system named is MDA-MB-231.
Experiment [4] deals with SK-MEL-28.
In experiment [5] the test system is DU-145.
For experiment [6], the system named is SNB-75.
For experiment [7], the system named is K562.
Experiment [8] concerns HCT-15.
For experiment [9], the system named is SF-295.
Experiment [10] concerns SW-620.
Experiment [11] has as its system OVCAR-8.
The test system of experiment [12] is HCC 2998.
In experiment [13] the test system is RXF 393.
Experiment [14] concerns KM12.
Experiment [15] deals with COLO 205.
Experiment [16] relates to U-251.
The test system of experiment [17] is SR.
The test system of experiment [18] is SNB-19.
Experiment [19] has as its system RPMI-8226.
The subject of experiment [20] is MDA-N.

For the compound `CCOc1ccc2nc(NC(=O)C(=O)C(C(=O)c3ccccc3-c3ccccc3)C3OC(=O)c4ccccc43)sc2c1` (stereo not given), the GI50 in experiment [1] was 35.2 µM (inactive); in experiment [2], 23.2 µM (inactive); in [3], 25.9 µM (inactive); in experiment [4], 20.2 µM (inactive); in experiment [5], 21.9 µM (inactive); in [6], 21.3 µM (inactive). Moreover, the GI50 in experiment [7] is 22.3 µM (inactive); in [8] it was 22.4 µM; in experiment [9], 21.6 µM (inactive); in [10], 26.6 µM (inactive); in [11], 8.22 µM (inactive); in [12], 18.5 µM (inactive). The GI50 in [13] is 13.4 µM (inactive); in experiment [14], 8.93 µM (inactive); in [15] it was 19.4 µM (inactive); in experiment [16], 15 µM (inactive); in [17], 9.79 µM (inactive); in [18], 14 µM (inactive). In addition, the figures for the GI50 in [19] and in [20] were 12.2 µM (inactive) and 19.6 µM (inactive), respectively.
With `CC1=NN(C(=O)CC(=O)Nc2cccc(C)c2)C(=O)C1/N=N/c1ccc(C(=O)O)cc1` (stereo not given), the GI50 in experiment [1] was > 100 µM (inactive); in [2] it was > 100 µM (inactive); in [3], > 100 µM (inactive); in [4], > 100 µM (inactive); in experiment [5] it was > 100 µM (inactive); in experiment [6], 69.2 µM (inactive). In addition, the GI50 in experiment [7] is > 100 µM (inactive); in experiment [8] it was more than 100 µM; in experiment [9] it was > 100 µM (inactive); in [10] it was > 100 µM (inactive); in experiment [11], > 100 µM (inactive); in [12], > 100 µM (inactive). The GI50 in [13] is > 100 µM (inactive); in experiment [14], > 100 µM (inactive); in experiment [15], > 100 µM (inactive); in [16], > 100 µM (inactive); in experiment [17] it was 37.9 µM (inactive); in [18] it was > 100 µM (inactive). For the same compound, the GI50 in experiment [19] and in experiment [20] was > 100 µM (inactive) in each case.
As to `CC(/C=C/C=C/C=C/C=C/C=C/C(=O)C1=C(O)C(CCC(=O)O)N(C)C1=O)=C\C(C)C(OC1CC(O)C(O)C(C)O1)C(C)C` (stereo not given), the GI50 in [1] was 5.75 µM (inactive); in [2], 3.5 µM (inactive); in experiment [3], 2.9 µM (inactive); in experiment [4], 2.68 µM (inactive); in [5], 3.42 µM (inactive); in [6] it was 3.89 µM (inactive). Besides, the GI50 in [7] was 3.71 µM (inactive); in experiment [8], 3.68 µM; in [9], 3.8 µM (inactive); in experiment [10], 4.13 µM (inactive); in experiment [11], 3.74 µM (inactive); in experiment [12], 2.15 µM (inactive). For the same compound, the GI50 was 3.07 µM (inactive) in experiment [13]; 1.88 µM (inactive) in [14]; 2.18 µM (inactive) in [15]; 3.6 µM (inactive) in experiment [16]; 3.85 µM (inactive) in experiment [17]; 2.81 µM (inactive) in experiment [18]. For the same compound, the GI50 was 3.13 µM (inactive) in [19] and 2.97 µM (inactive) in [20].
For the compound `Cc1cc(C)c2c(c1)C(=O)C1(C2)Cc2c(ccc(C)c2C)C1=O` (stereo not given), the GI50 in [1], in experiment [2], in experiment [3], in experiment [4], in experiment [5] and in [6] was > 100 µM (inactive) each time. Also, the GI50 was > 100 µM (inactive) in experiment [7]; more than 100 µM in experiment [8]; > 100 µM (inactive) in [9]; > 100 µM (inactive) in [10]; > 100 µM (inactive) in experiment [11]; > 100 µM (inactive) in experiment [12]. Besides, the GI50 in [13], in [14], in experiment [15], in [16], in experiment [17] and in experiment [18] was > 100 µM (inactive) throughout. For the same compound, the GI50 in experiment [19] and in [20] was > 100 µM (inactive) throughout.
On to `CNCCN[C@@H]1c2cc3c(cc2[C@@H](c2cc(OC)c(O)c(OC)c2)[C@H]2C(=O)OC[C@@H]21)OCO3`, for which the GI50 in experiment [1] was 5.3 µM (inactive); in experiment [2] it was 0.264 µM (active); in [3], 0.37 µM (active); in experiment [4] it was 0.665 µM (active); in [5], 0.27 µM (active); in experiment [6], 0.274 µM (active). For the same compound, the GI50 in experiment [7] is 0.177 µM (active); in experiment [8], 3.21 µM; in experiment [9] it was 0.0973 µM (active); in [10], 0.269 µM (active); in experiment [11], 0.252 µM (active); in [12], 0.474 µM (active). Besides, the GI50 in experiment [13] is 0.229 µM (active); in [14], 0.406 µM (active); in [15], 1.23 µM (inactive); in [16] it was 0.125 µM (active); in experiment [17], 0.0122 µM (active); in experiment [18] it was 0.291 µM (active). The GI50 in [19] is 0.0604 µM (active); in [20], 1.04 µM (active).
In the case of `CC(=O)c1c(SCCN2CCCCCC2)n(-c2ccccc2)c(=S)n(-c2ccccc2)c1=O`, the GI50 in experiment [1] was 20.9 µM (inactive); in [2], 3.85 µM (inactive); in experiment [3], 14.4 µM (inactive); in experiment [4], 11.2 µM (inactive); in experiment [5], 2.17 µM (inactive); in experiment [6] it was 13.8 µM (inactive). Besides, the GI50 in [7] was 2.61 µM (inactive); in [8], 5.61 µM; in experiment [9], 35.9 µM (inactive); in experiment [10], 2.04 µM (inactive); in experiment [11], 10.7 µM (inactive); in [12] it was 4.3 µM (inactive). Further, the GI50 in experiment [13] is 1.73 µM (inactive); in experiment [14] it was 18.6 µM (inactive); in [15], 2.03 µM (inactive); in [16], 15.9 µM (inactive); in experiment [17], 1.09 µM (active); in experiment [18] it was 51.1 µM (inactive). The figures for the GI50 in experiment [19] and in [20] were 0.384 µM (active) and 7.29 µM (inactive), respectively.
As to `CO/N=C\c1cc(O)c(O)c(/C=N/OC)c1`, the GI50 in experiment [1] was 24.9 µM (inactive); in experiment [2], 23.3 µM (inactive); in experiment [3] it was 36.1 µM (inactive); in experiment [4], > 100 µM (inactive); in [5], 39.5 µM (inactive); in [6], 87.5 µM (inactive). The GI50 in [7] is 29.8 µM (inactive); in experiment [8], 33.3 µM; in experiment [9], 48 µM (inactive); in experiment [10], 36.6 µM (inactive); in experiment [11] it was 23.4 µM (inactive); in experiment [12], 32.8 µM (inactive). The GI50 in [13] is 51.2 µM (inactive); in [14], 38.8 µM (inactive); in experiment [15] it was 37.9 µM (inactive); in experiment [16], 34.1 µM (inactive); in [17] it was 5.83 µM (inactive); in experiment [18], 59.6 µM (inactive). The GI50 in experiment [19] is 12.5 µM (inactive); in experiment [20], 64.4 µM (inactive).
Take `CC(=O)c1ccccc1NS(=O)(=O)c1ccc2nc(C)n(NS(=O)(=O)c3ccccc3C(C)=O)c(=O)c2c1`: the GI50 in experiment [1], in experiment [2], in [3], in experiment [4], in [5] and in experiment [6] was > 100 µM (inactive) in each case. In addition, the GI50 in experiment [7] is > 100 µM (inactive); in [8] it was more than 100 µM; in [9], > 100 µM (inactive); in [10], > 100 µM (inactive); in experiment [11] it was > 100 µM (inactive); in [12], > 100 µM (inactive). Moreover, the GI50 in experiment [13], in [14], in experiment [15], in [16], in [17] and in [18] was > 100 µM (inactive) in each case. The GI50 in experiment [19] and in experiment [20] was > 100 µM (inactive) throughout.
On to `CN(C)CCCCN1c2ccccc2Sc2ccc(C(=O)c3ccccc3)cc21`, for which the GI50 in [1] was 3.23 µM (inactive); in experiment [2] it was 2.19 µM (inactive); in experiment [3], 2.11 µM (inactive); in experiment [4], 1.95 µM (inactive); in [5], 3.63 µM (inactive); in experiment [6] it was 2.34 µM (inactive). The GI50 was 1.57 µM (inactive) in [7]; 3.51 µM in [8]; 2.15 µM (inactive) in experiment [9]; 1.77 µM (inactive) in [10]; 3.33 µM (inactive) in [11]; 1.83 µM (inactive) in [12]. The GI50 in experiment [13] is 1.22 µM (inactive); in [14], 2.02 µM (inactive); in experiment [15], 1.64 µM (inactive); in [16] it was 2.41 µM (inactive); in [17], 3.83 µM (inactive); in experiment [18], 4.06 µM (inactive). Also, the GI50 in [19] is 2.24 µM (inactive); in [20], 2.65 µM (inactive).
`CCC(=O)NC(Nc1ccccc1F)(C(F)(F)F)C(F)(F)F`: the GI50 in experiment [1], in experiment [2], in experiment [3], in experiment [4], in experiment [5] and in experiment [6] was > 100 µM (inactive) each time. For the same compound, the GI50 was > 100 µM (inactive) in experiment [7]; more than 100 µM in experiment [8]; > 100 µM (inactive) in [9]; > 100 µM (inactive) in experiment [10]; > 100 µM (inactive) in experiment [11]; > 100 µM (inactive) in experiment [12]. Besides, the GI50 in [13], in [14], in [15], in [16], in experiment [17] and in experiment [18] was > 100 µM (inactive) in each case. Also, the GI50 in experiment [19] and in [20] was > 100 µM (inactive) each time.
